Assay results: PMC12603041, “A neuroprotective tetrapeptide for treatment of acute traumatic brain injury” (EMBO Molecular Medicine, 2025)
Peptide text beside a SMILES is read from it.

Legend:
[1] = system: injured brain; settings: mouse, in vivo, iv; cited from earlier work
From the text: We have previously identified a tetrapeptide, CAQK, that accumulates in the ECM of the injured brain. […] We reasoned that knowing the target molecule CAQK binds to would likely give hints of the possible nature of such an activity. Previous work has shown that CAQK binds to a chondroitin sulfate proteoglycan (CSPG)-rich protein complex, the expression of which is elevated following an inju ... || Given the CAQK accumulation in the injured brain and binding to TnC in injured ECM, and the functional activities observed with other homing peptides, it seemed possible that CAQK might affect the course of TBI. To prepare for functional testing of CAQK, we performed CAQK half-life analyses using a mouse model of CCI. […] Initial clearance from the circulation through glomerular filtration is expected for a small peptide, explaining the short half-life. A small per ...

[2] = in vivo; settings: mouse, iv, 12.5 mg/kg
Experimental: (§1) Figure 2 Pharmacokinetic analysis of CAQK. (A) Mice with CCI received i.v. bolus of CAQK (12.5 mg/kg) at 4 h after CCI. Blood was collected at different time points, and plasma was analyzed by LC/MS. Plasma concentration of CAQK was plotted using WinNonlin. N = 3 per time point. (B) Plasma clearance data were used to calculate pharmacokinetic parameters using a two-compartment analysis. (C) CAQK accumulation was analyzed in brain homogenates from injured (ipsilateral) and uninjured (contralateral) sides at different time points after i.v. injection and plotted as ng/g of brain tissue. N = 3/group. Data were expressed as mean ± SEM. Differences were analyzed using an unpaired t-test. […] vs contralateral side. […] It is not in the table of panel B, so it is not attached as a condition.
(§2) CAQK (12.5 mg/kg) was injected i.v. into mice with CCI at 4 h post-injury. Blood was collected from these mice at different time points, and plasma was processed and analyzed by LC/MS after a reduction and alkylation step under reducing conditions to capture total peptide (free peptide and peptide bound to plasma proteins by disulfide formation). Plasma concentration was plotted using WinNonlin. Similarly, for analysis in rats, CAQK (10 mg/kg) was injected i.v. into healthy Sprague-Dawley rats once daily for 7 days. Blood was collected at different time points at Day 1 and Day, 7 and plasma was analyzed by LC/MS to analyze CAQK. Plasma concentration of CAQK was plotted. N = 3 per time point.

[3] = Safety study in CCI mice; format: in vivo, mouse; settings: for ALP / ALT / BUN / GGT / TBIL: CCI mice, blood after two weeks, n = 5; for ALP / ALT / BUN: mean ± SD
Experimental: Male C57BL/6 mice (n = 5 per group) with CCI injury were intravenously administered daily with control PBS or with various concentrations (1, 5, and 25 mg/kg) of the CAQK peptide. After 2 weeks, blood was collected from the mice and analyzed for liver and kidney toxicity. Tests performed for liver function (ALP: alkaline phosphatase, ALT: alanine aminotransferase, TBIL total bilirubin, GGT G-glutamyl transferase) and kidney function (BUN: blood urea nitrogen). Results expressed as mean ± SD. For a more detailed safety analysis, Sprague-Dawley rats were randomized to four dose groups. CAQK or vehicle (0.9% sodium chloride injection, USP) was administered once daily by i.v. administration to male and female rats at 0 (vehicle),10, 100, or 300 mg/kg/day (Groups 1–4, respectively) for 7 consecutive days. All animals were euthanized and necropsied after blood sample collection for clinical pathology on Day 8. All animals in Groups 1–4 were evaluated for clinical observations, body weights, and clinical pathology (hematology, coagulation, and serum chemistry), gross necropsy observations and major organ weights. […]
Appendix Table S2. Safety study in CCI mice. C57BL/6 mice (n = 5 per group) with CCI injury were intravenously injecteddaily for 7 days with vehicle control (PBS)or with the shown concentration of the CAQK peptide. After two weeks, blood was collected from the mice and analyzed for liver and kidney toxicity. Tests performed for liver function:ALP:
Alkaline Phosphatase, ALT: Alanine Aminotransferase, TBIL-total bilirubin, GGT -G-glutamyl transferase,and for kidney function:BUN: Blood urea nitrogen. Results

[4] = CAQK plasma clearance in rats; format: in vivo, rat
Experimental: Figure EV2 CAQK plasma clearance in rats. (A) CAQK was injected daily i.v. in healthy adult Sprague-Dawley rats at a 10 mg/kg dose for 7 days. Blood was collected at different time points at Day 1 and Day 7, and plasma was analyzed by LC/MS to analyze CAQK. Plasma concentration of CAQK was plotted. N = 3 per time point. Plasma clearance data were also used to calculate pharmacokinetic parameters in (B). (C) FP measurement of CAQK binding to BSA. FAM-CAQK (20 nM) was incubated with BSA at the indicated concentration for 1 h at 37 °C. n = 3.
as §2

[5] = system: injured brain; settings: mouse, in vivo
Experimental: as §1
as §2, with “Similarly, for analysis in rats, CAQK (10 mg/kg) was injected i.v. into healthy Sprague-Dawley rats once daily for 7 days.” left out, “Plasma concentration of CAQK was plotted. N = 3 per time point.” left out

C[C@H](NC(=O)[C@@H](N)CS)C(=O)N[C@@H](CCC(N)=O)C(=O)N[C@@H](CCCCN)C(N)=O [CAQK, cysteine-alanine-glutamine-lysine] (H-CAQK-NH2)
accumulation in other organs [1]: No other organs showed peptide accumulation except the kidneys
AUC(0-inf) [2]: 27800 ng·h/mL
AUC(0-t) [2]: 27400 ng·h/mL
C0 [2]: 45100 ng/mL
CL2 [2]: 13 mL/min/kg
MRT [2]: 4.2 h
T1/2, initial rapid clearance from the blood [2]: 9 min
T1/2, second elimination phase [2]: 4.1 h
V1 [2]: 0.28 L/kg
V2 [2]: 1.6 L/kg
Vd [2]: 1.9 L/kg
clearance [2]: 7.5 mL/min/kg
half-life [2]: 4.2 h
k10 [2]: 1.6 h⁻¹
k12 [2]: 2.8 h⁻¹
k21 [2]: 0.48 h⁻¹
t1/2Alpha [2]: 9 min
ALP ([3]; 1 mg/kg i.v. daily for 7 days): 45 ± 5.3 U/L
ALT ([3]; 1 mg/kg i.v. daily for 7 days): 24.3 ± 6.8 U/L
BUN ([3]; 1 mg/kg i.v. daily for 7 days): 21.3 ± 3.5 mg /bL
GGT ([3]; 1 mg/kg i.v. daily for 7 days): < 5 U/L
TBIL ([3]; 1 mg/kg i.v. daily for 7 days): 0.3 mg/dL
ALP ([3]; 5 mg/kg i.v. daily for 7 days): 47.4 ± 8.2 U/L
ALT ([3]; 5 mg/kg i.v. daily for 7 days): 23.4 ± 4.9 U/L
BUN ([3]; 5 mg/kg i.v. daily for 7 days): 22.2 ± 1 mg /bL
GGT ([3]; 5 mg/kg i.v. daily for 7 days): < 5 U/L
TBIL ([3]; 5 mg/kg i.v. daily for 7 days): 0.3 mg/dL
ALP ([3]; 25 mg/kg i.v. daily for 7 days): 42.6 ± 7.6 U/L
ALT ([3]; 25 mg/kg i.v. daily for 7 days): 34.8 ± 13.2 U/L
BUN ([3]; 25 mg/kg i.v. daily for 7 days): 24.8 ± 2.05 mg /bL
GGT ([3]; 25 mg/kg i.v. daily for 7 days): < 5 U/L
TBIL ([3]; 25 mg/kg i.v. daily for 7 days): 0.3 mg/dL
effects on body weight, organ weight, or clinical pathology ([3]; TBI mice, daily i.v. doses (1, 5, and 25 mg/kg)): no effects
half-life after single injection versus daily injections over a week ([4]; healthy Sprague-Dawley rats, 10 mg/kg i.v. daily for 7 days, Day 1 and Day 7): remained the same
pK profile after 7-day repeat dosing ([4]; repeat IV dosing, 7 days): unaltered
estimated half-life in the brain [5]: about 5.8 h
accumulation in the injured side of the brain versus the contralateral side ([5]; iv): over eightfold
